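GI50: concentration for 50% inhibition of growth. The concentration for full growth arrest is given as TGI.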
How the values were obtained:
Assay in all cases: DTP human tumour cell line panel, 384-well format
[1] = tested on: CAKI-1 renal
[2] = tested on: MDA-MB-468 breast
[3] = tested on: ACHN renal
[4] = tested on: HOP-92 NSCLC
[5] = tested on: NCI-H322M lung
[6] = tested on: MDA-MB-435 melanoma
[7] = tested on: HCC-2998 colon
[8] = tested on: SK-MEL-5 melanoma
[9] = tested on: RPMI-8226 leukemia
[10] = tested on: MCF7 breast
[11] = tested on: MOLT-4 leukemia
[12] = tested on: NCI-H522 lung
[13] = tested on: SK-MEL-28 melanoma
[14] = tested on: M14 melanoma
[15] = tested on: HOP-62 NSCLC
[16] = tested on: SW-620 colon
[17] = tested on: HL-60(TB) leukemia
[18] = tested on: SK-OV-3 ovarian
[19] = tested on: SK-MEL-2 melanoma
[20] = tested on: CCRF-CEM leukemia
[21] = tested on: OVCAR-3 ovarian
[22] = tested on: SF-268 CNS
[23] = tested on: 786-0 renal
[24] = tested on: OVCAR-8 ovarian
[25] = tested on: HT29 colon
[26] = tested on: A498 renal
[27] = tested on: BT-549 breast
[28] = tested on: SN12C renal
[29] = tested on: OVCAR-4 ovarian
[30] = tested on: NCI/ADR-RES ovarian
[31] = tested on: LOX IMVI melanoma
[32] = tested on: UACC-257 melanoma
[33] = tested on: NCI-H23 lung
[34] = tested on: TK-10 renal
[35] = tested on: PC-3 prostate
[36] = tested on: EKVX NSCLC
[37] = tested on: U251 glioblastoma
[38] = tested on: SF-539 CNS
[39] = tested on: SNB-75 CNS
[40] = tested on: COLO 205 colon
[41] = tested on: SNB-19 CNS
[42] = tested on: HS 578T breast
[43] = tested on: HCT-15 colon
[44] = tested on: UACC-62 melanoma
[45] = tested on: NCI-H460 NSCLC
[46] = tested on: IGROV1 ovarian
[47] = tested on: MALME-3M melanoma
[48] = tested on: KM12 colon
[49] = tested on: A549 NSCLC
[50] = tested on: NCI-H226 lung
[51] = tested on: DU-145 prostate
[52] = tested on: SF-295 CNS
[53] = tested on: HCT-116 colon
[54] = tested on: RXF 393 renal

For O=C1c2ccccc2C(=O)C(Cl)C1Cl (stereo not drawn), the GI50 [1] was 1.66 µM, the TGI [1] was 3.03 µM and the GI50 [2] was 1.53 µM. The TGI [2] was 2.87 µM, the GI50 [3] was 1.38 µM and the TGI [3] was 2.68 µM. For the same molecule, the GI50 [4] was 1.64 µM, the TGI [4] was 3 µM and the GI50 [5] was 16.3 µM. For the same molecule, the TGI [5] was 30 µM, the GI50 [6] was 1.83 µM and the TGI [6] was 3.4 µM. It also gave a GI50 [7] of 14.1 µM, a TGI [7] of 27.2 µM and a GI50 [8] of 2.31 µM. The TGI [8] was 9.5 µM, the GI50 [9] was 1.55 µM and the TGI [9] was 2.9 µM. The GI50 [10] was 1.39 µM, the TGI [10] was 2.72 µM and the GI50 [11] was 1.36 µM. It also gave a TGI [11] of 2.65 µM, a GI50 [12] of 1.5 µM and a TGI [12] of 2.84 µM. For the same molecule, the GI50 [13] was 3.24 µM, the TGI [13] was 9.55 µM and the GI50 [14] was 1.89 µM. For the same molecule, the TGI [14] was 3.39 µM, the GI50 [15] was 3.33 µM and the TGI [15] was 11.3 µM. For the same molecule, the GI50 [16] was 1.63 µM, the TGI [16] was 3.02 µM and the GI50 [17] was 0.243 µM. The TGI [17] was 0.743 µM, the GI50 [18] was 13.2 µM and the TGI [18] was 26.1 µM. It also gave a GI50 [19] of 1.91 µM, a TGI [19] of 3.32 µM and a GI50 [20] of 1.49 µM. The TGI [20] was 2.84 µM, the GI50 [21] was 1.6 µM and the TGI [21] was 2.95 µM. For the same molecule, the GI50 [22] was 13.9 µM, the TGI [22] was 27 µM and the GI50 [23] was 1.87 µM. It also gave a TGI [23] of 4.85 µM, a GI50 [24] of 1.67 µM and a TGI [24] of 3.07 µM. For the same molecule, the GI50 [25] was 2.78 µM, the TGI [25] was 8.03 µM and the GI50 [26] was 17.7 µM. The TGI [26] was 31.6 µM, the GI50 [27] was 1.56 µM and the TGI [27] was 2.91 µM. For the same molecule, the GI50 [28] was 1.81 µM, the TGI [28] was 3.46 µM and the GI50 [29] was 1.21 µM. The TGI [29] was 2.46 µM, the GI50 [30] was 11.2 µM and the TGI [30] was 23.3 µM. It also gave a GI50 [31] of 0.0967 µM, a TGI [31] of 17.4 µM and a GI50 [32] of 1.94 µM. It also gave a TGI [32] of 3.36 µM, a GI50 [33] of 1.76 µM and a TGI [33] of 3.92 µM. It also gave a GI50 [34] of 1.58 µM, a TGI [34] of 2.93 µM and a GI50 [35] of 1.73 µM. For the same molecule, the TGI [35] was 3.59 µM, the GI50 [36] was 7.02 µM and the TGI [36] was 20.4 µM. It also gave a GI50 [37] of 16.2 µM, a TGI [37] of 30 µM and a GI50 [38] of 1.69 µM. The TGI [38] was 3.08 µM, the GI50 [39] was 7.16 µM and the TGI [39] was 20.5 µM. The GI50 [40] was 1.84 µM, the TGI [40] was 3.26 µM and the GI50 [41] was 14.1 µM. It also gave a TGI [41] of 27.2 µM, a GI50 [42] of 12.7 µM and a TGI [42] of 25.3 µM. The GI50 [43] was 1.42 µM, the TGI [43] was 2.75 µM and the GI50 [44] was 1.37 µM. For the same molecule, the TGI [44] was 2.85 µM, the GI50 [45] was 14 µM and the TGI [45] was 27.2 µM. For the same molecule, the GI50 [46] was 1.33 µM, the TGI [46] was 4.33 µM and the GI50 [47] was 1.76 µM. For the same molecule, the TGI [47] was 3.15 µM, the GI50 [48] was 13.7 µM and the TGI [48] was 26.8 µM. The GI50 [49] was 15.1 µM, the TGI [49] was 28.7 µM and the GI50 [50] was 1.41 µM. The TGI [50] was 2.77 µM, the GI50 [51] was 1.15 µM and the TGI [51] was 2.55 µM. For the same molecule, the GI50 [52] was 15.2 µM, the TGI [52] was 28.5 µM and the GI50 [53] was 1.62 µM. For the same molecule, the TGI [53] was 3.01 µM, the GI50 [54] was 1.63 µM and the TGI [54] was 3 µM.
